Data reported in PubChem BioAssay AID256 (DTP/NCI, 2004).
Values joined by “and” are separate entries in the source; they are usually repeats but may differ in a detail not shown here. Equal values may be shown once. Inconclusive results and toxic doses are left out. The calls were made as follows: active = survival T/C of 150% or more; inactive = T/C below 125% in these data.

Test system: CD2F1 mice, L1210 leukemia ip, survival T/C
Experiment: NCI In Vivo Anticancer Drug Screen. Data for tumor model L1210 Leukemia (intraperitoneal) in CD2F1 (CDF1) mice
Conditions: higher = longer survival
Protocol: The antitumor activity of compounds was measured in mice bearing transplantable tumors. Survival or tumor size were measured and the results are expressed as the measurement made in the treated group (T) divided by the measurement made in the vehicle treated control group (C). The tumor model used in this assay is L1210 Leukemia (intraperitoneal) in CD2F1 (CDF1) mice

Measured: T/C

O=C(O)CCCc1ccc(N(CCCl)CCCl)cc1
inactive: endpoint: mean survival time, dose: 0.5 mg/kg/injection, schedule: Q01DX009 (ip), vehicle: Klucel (hydroxypropylcellulose) (HPC) 103 % of control and 108 % of control | endpoint: mean survival time, dose: 1.0 mg/kg/injection, schedule: Q01DX009 (ip), vehicle: Klucel (hydroxypropylcellulose) (HPC) 94 % of control and 100 % of control and 106 % of control | endpoint: mean survival time, dose: 1.0 mg/kg/injection, schedule: Q03HX024 (ip), vehicle: other 102 % of control | endpoint: mean survival time, dose: 1.56 mg/kg/injection, schedule: Q01DX009 (ip), vehicle: saline 101 % of control and 103 % of control | endpoint: mean survival time, dose: 2.0 mg/kg/injection, schedule: Q01DX009 (ip), vehicle: Klucel (hydroxypropylcellulose) (HPC) 97 % of control and 100 % of control and 103 % of control | endpoint: mean survival time, dose: 2.0 mg/kg/injection, schedule: Q01DX009 (ip), vehicle: saline with Tween-80 106 % of control | endpoint: mean survival time, dose: 2.0 mg/kg/injection, schedule: Q01DX009 (oral), vehicle: other 102 % of control | endpoint: mean survival time, dose: 2.0 mg/kg/injection, schedule: Q03HX008 (ip), vehicle: other 101 % of control | endpoint: mean survival time, dose: 2.0 mg/kg/injection, schedule: Q03HX016 (ip), vehicle: other 103 % of control | endpoint: mean survival time, dose: 2.0 mg/kg/injection, schedule: Q03HX024 (ip), vehicle: other 105 % of control | endpoint: mean survival time, dose: 3.13 mg/kg/injection, schedule: Q01DX009 (ip), vehicle: saline 119 % of control and 110 % of control | endpoint: mean survival time, dose: 3.75 mg/kg/injection, schedule: Q01DX009 (ip), vehicle: Klucel (hydroxypropylcellulose) (HPC) 102 % of control | endpoint: mean survival time, dose: 4.0 mg/kg/injection, schedule: Q01DX001 (ip), vehicle: saline with Tween-80 91 % of control | endpoint: mean survival time, dose: 4.0 mg/kg/injection, schedule: Q01DX001 (oral), vehicle: other 95 % of control | endpoint: mean survival time, dose: 4.0 mg/kg/injection, schedule: Q01DX009 (ip), vehicle: Klucel (hydroxypropylcellulose) (HPC) 116 % of control and 101 % of control and 111 % of control | endpoint: mean survival time, dose: 4.0 mg/kg/injection, schedule: Q01DX009 (ip), vehicle: other 114 % of control | endpoint: mean survival time, dose: 4.0 mg/kg/injection, schedule: Q01DX009 (ip), vehicle: saline with Tween-80 117 % of control and 103 % of control | endpoint: mean survival time, dose: 4.0 mg/kg/injection, schedule: Q01DX009 (oral), vehicle: other 96 % of control | endpoint: mean survival time, dose: 4.0 mg/kg/injection, schedule: Q01DX009 (sc), vehicle: other 102 % of control | endpoint: mean survival time, dose: 4.0 mg/kg/injection, schedule: Q03HX008 (ip), vehicle: other 102 % of control | endpoint: mean survival time, dose: 4.0 mg/kg/injection, schedule: Q03HX016 (ip), vehicle: other 110 % of control | endpoint: mean survival time, dose: 4.0 mg/kg/injection, schedule: Q03HX024 (ip), vehicle: other 111 % of control | endpoint: mean survival time, dose: 4.0 mg/kg/injection, schedule: Q04DX003 (ip), vehicle: saline with Tween-80 102 % of control | endpoint: mean survival time, dose: 4.0 mg/kg/injection, schedule: Q04DX003 (oral), vehicle: other 107 % of control | endpoint: mean survival time, dose: 6.25 mg/kg/injection, schedule: Q01DX009 (ip), vehicle: saline 106 % of control and 110 % of control | endpoint: mean survival time, dose: 7.5 mg/kg/injection, schedule: Q01DX007 (ip), vehicle: saline 108 % of control | endpoint: mean survival time, dose: 7.5 mg/kg/injection, schedule: Q01DX009 (ip), vehicle: saline 114 % of control | endpoint: mean survival time, dose: 7.5 mg/kg/injection, schedule: Q03DX003 (ip), vehicle: saline 104 % of control | endpoint: mean survival time, dose: 7.5 mg/kg/injection, schedule: Q04DX003 (ip), vehicle: saline 102 % of control | endpoint: mean survival time, dose: 8.0 mg/kg/injection, schedule: Q01DX001 (ip), vehicle: saline with Tween-80 96 % of control | endpoint: mean survival time, dose: 8.0 mg/kg/injection, schedule: Q01DX001 (oral), vehicle: other 96 % of control | endpoint: mean survival time, dose: 8.0 mg/kg/injection, schedule: Q01DX009 (ip), vehicle: Klucel (hydroxypropylcellulose) (HPC) 113 % of control and 117 % of control and 105 % of control | endpoint: mean survival time, dose: 8.0 mg/kg/injection, schedule: Q01DX009 (ip), vehicle: other 120 % of control | endpoint: mean survival time, dose: 8.0 mg/kg/injection, schedule: Q01DX009 (ip), vehicle: saline with Tween-80 117 % of control and 101 % of control | endpoint: mean survival time, dose: 8.0 mg/kg/injection, schedule: Q01DX009 (oral), vehicle: other 106 % of control | endpoint: mean survival time, dose: 8.0 mg/kg/injection, schedule: Q01DX009 (sc), vehicle: other 111 % of control | endpoint: mean survival time, dose: 8.0 mg/kg/injection, schedule: Q03HX008 (ip), vehicle: other 119 % of control | endpoint: mean survival time, dose: 8.0 mg/kg/injection, schedule: Q03HX016 (ip), vehicle: other 118 % of control | endpoint: mean survival time, dose: 8.0 mg/kg/injection, schedule: Q04DX003 (ip), vehicle: other 118 % of control | endpoint: mean survival time, dose: 8.0 mg/kg/injection, schedule: Q04DX003 (ip), vehicle: saline with Tween-80 109 % of control | endpoint: mean survival time, dose: 8.0 mg/kg/injection, schedule: Q04DX003 (oral), vehicle: other 96 % of control | endpoint: mean survival time, dose: 10.0 mg/kg/injection, schedule: Q01DX009 (ip), vehicle: saline with Tween-80 118 % of control | endpoint: mean survival time, dose: 12.5 mg/kg/injection, schedule: Q01DX009 (ip), vehicle: saline 119 % of control | endpoint: mean survival time, dose: 15.0 mg/kg/injection, schedule: Q01DX007 (ip), vehicle: saline 122 % of control | endpoint: mean survival time, dose: 15.0 mg/kg/injection, schedule: Q01DX009 (ip), vehicle: Klucel (hydroxypropylcellulose) (HPC) 108 % of control | endpoint: mean survival time, dose: 15.0 mg/kg/injection, schedule: Q01DX009 (ip), vehicle: saline with Tween-80 120 % of control | endpoint: mean survival time, dose: 15.0 mg/kg/injection, schedule: Q01DX009 (ip), vehicle: saline 120 % of control | endpoint: mean survival time, dose: 15.0 mg/kg/injection, schedule: Q03DX003 (ip), vehicle: saline 117 % of control | endpoint: mean survival time, dose: 15.0 mg/kg/injection, schedule: Q04DX003 (ip), vehicle: saline 111 % of control | endpoint: mean survival time, dose: 16.0 mg/kg/injection, schedule: Q01DX001 (ip), vehicle: other 102 % of control | endpoint: mean survival time, dose: 16.0 mg/kg/injection, schedule: Q01DX001 (ip), vehicle: saline with Tween-80 107 % of control | endpoint: mean survival time, dose: 16.0 mg/kg/injection, schedule: Q01DX001 (oral), vehicle: other 93 % of control | endpoint: mean survival time, dose: 16.0 mg/kg/injection, schedule: Q01DX001 (sc), vehicle: other 104 % of control | endpoint: mean survival time, dose: 16.0 mg/kg/injection, schedule: Q01DX009 (ip), vehicle: Klucel (hydroxypropylcellulose) (HPC) 114 % of control and 97 % of control | endpoint: mean survival time, dose: 16.0 mg/kg/injection, schedule: Q01DX009 (ip), vehicle: saline with Tween-80 118 % of control and 97 % of control | endpoint: mean survival time, dose: 16.0 mg/kg/injection, schedule: Q01DX009 (oral), vehicle: other 120 % of control | endpoint: mean survival time, dose: 16.0 mg/kg/injection, schedule: Q01DX009 (sc), vehicle: other 120 % of control | endpoint: mean survival time, dose: 16.0 mg/kg/injection, schedule: Q04DX003 (ip), vehicle: other 115 % of control | endpoint: mean survival time, dose: 16.0 mg/kg/injection, schedule: Q04DX003 (ip), vehicle: saline with Tween-80 120 % of control | endpoint: mean survival time, dose: 16.0 mg/kg/injection, schedule: Q04DX003 (oral), vehicle: other 103 % of control | endpoint: mean survival time, dose: 16.0 mg/kg/injection, schedule: Q08DX002 (ip), vehicle: other 101 % of control | endpoint: mean survival time, dose: 30.0 mg/kg/injection, schedule: Q01DX007 (ip), vehicle: saline with Tween-80 90 % of control | endpoint: mean survival time, dose: 30.0 mg/kg/injection, schedule: Q01DX009 (ip), vehicle: Klucel (hydroxypropylcellulose) (HPC) 110 % of control | endpoint: mean survival time, dose: 30.0 mg/kg/injection, schedule: Q01DX009 (ip), vehicle: saline 124 % of control | endpoint: mean survival time, dose: 30.0 mg/kg/injection, schedule: Q04DX003 (ip), vehicle: saline 114 % of control | endpoint: mean survival time, dose: 32.0 mg/kg/injection, schedule: Q01DX001 (ip), vehicle: other 108 % of control | endpoint: mean survival time, dose: 32.0 mg/kg/injection, schedule: Q01DX001 (ip), vehicle: saline with Tween-80 117 % of control and 109 % of control | endpoint: mean survival time, dose: 32.0 mg/kg/injection, schedule: Q01DX001 (oral), vehicle: other 96 % of control | endpoint: mean survival time, dose: 32.0 mg/kg/injection, schedule: Q01DX001 (sc), vehicle: other 108 % of control | endpoint: mean survival time, dose: 32.0 mg/kg/injection, schedule: Q01DX009 (oral), vehicle: other 102 % of control | endpoint: mean survival time, dose: 32.0 mg/kg/injection, schedule: Q04DX003 (ip), vehicle: other 120 % of control | endpoint: mean survival time, dose: 32.0 mg/kg/injection, schedule: Q04DX003 (oral), vehicle: other 103 % of control | endpoint: mean survival time, dose: 32.0 mg/kg/injection, schedule: Q08DX002 (ip), vehicle: other 108 % of control | endpoint: mean survival time, dose: 64.0 mg/kg/injection, schedule: Q01DX001 (ip), vehicle: other 118 % of control | endpoint: mean survival time, dose: 64.0 mg/kg/injection, schedule: Q01DX001 (oral), vehicle: other 102 % of control | endpoint: mean survival time, dose: 64.0 mg/kg/injection, schedule: Q01DX001 (sc), vehicle: other 114 % of control | endpoint: mean survival time, dose: 64.0 mg/kg/injection, schedule: Q04DX003 (oral), vehicle: other 93 % of control | endpoint: mean survival time, dose: 64.0 mg/kg/injection, schedule: Q08DX002 (ip), vehicle: other 112 % of control | endpoint: median survival time, dose: 3.13 mg/kg/injection, schedule: Q01DX009 (ip), vehicle: saline 114 % of control and 105 % of control | endpoint: median survival time, dose: 6.25 mg/kg/injection, schedule: Q01DX009 (ip), vehicle: saline 114 % of control and 105 % of control | endpoint: median survival time, dose: 12.5 mg/kg/injection, schedule: Q01DX009 (ip), vehicle: saline 117 % of control
